Results reported in article PMC4964386, “Synthesis, Characterization, and Cytotoxicity of the First Oxaliplatin Pt(IV) Derivative Having a TSPO Ligand in the Axial Position” (International Journal of Molecular Sciences, 2016).
Where two headings read alike, the source gives them in different places.

What was measured:
[1] = system: human LoVo colon adenocarcinoma; experiment: MTT cell proliferation assay, LoVo; type: cell-based; settings: 72 h treatment; for IC50: MTT, read-out: IC50 (concentration inducing 50% cell survival inhibition)
Experimental: (§1) The cytotoxicity of the compounds, expressed as IC50 values after 72 h incubation (except in two cases where it is expressed as the % of cell viability at the maximum concentration tested of 100 μM) are reported in Table 3.
(§2) Human MCF7 breast carcinoma, human U87 glioblastoma, human LoVo colon adenocarcinoma cell lines and C6 rat glioma cells were used. As recommended for these cell lines, the base medium used (EuroClone, Pero (MI), Italy) was RPMI for MCF7 cells, DMEM for U87 and C6 cells, and F-12/HAM for LoVo cells, enriched with fetal bovine serum (10%), penicillin (100 U/mL)/streptomycin (100 μg/mL) (1%) and glutamine 200 mM (1%) (EuroClone, Pero (MI), Italy). Cells were incubated at 37 °C under an atmosphere containing 5% CO2.
(§3) Determination of cell growth inhibition was performed on MCF7, U87 and LoVo cell lines, using the 3-[4,5-dimethylthiazol-2-yl]-2,5-diphenyltetrazoliumbromide (MTT) assay. The determination of the % of cell viability after treatment with the test compounds, was performed as described by Denora et al.. Briefly, cells were dispensed on 96 microtiter plates at a density of 5000 cells/well and, after overnight incubation, were exposed for 72 h to solutions of the compounds with concentration in the range 0.01–100 µM. After addition of MTT (10 μL of 0.5% w/v in PBS) and incubation for an additional 3 h at 37 °C, the cells were lysed with 100 μL of DMSO/EtOH 1:1 (v/v) solution, dispensed in each well. A PerkinElmer 2030 multilabel reader Victor TM X3 (manufactured for WALLAC Oy, Turku, Finland by PerkinElmer Singapore was used for the absorbance determination at 570 nm.

human U87 glioblastoma = experiment: MTT cell proliferation assay, U87; type: cell-based; settings: U87, 72 h treatment, read-out: IC50 (concentration inducing 50% cell survival inhibition)
Experimental: as §1, §2, §3

LoVo cells = experiment: Cell cycle analysis by flow cytometry (propidium iodide); type: cell-based, human; settings: for Perturbation of cell cycle progression: 24 h treatment at IC50 concentrations (compound 2 at 100 µM), FCM
Experimental: Figure 9 Flow cytometric analysis of LoVo cells stained with propidium iodide after 24 h of treatment with test compounds.
Then, the experimental procedure described in our previous work was performed.

LoVo colon cancer cells = experiment: Platinum cellular uptake by ICP-MS; type: cell-based, human
From the text: As already reported, oxaliplatin is a chemotherapeutic drug mainly used for the treatment of colorectal cancer, therefore, we extended our investigation only to LoVo cells. First we measured the intracellular accumulation of platinum by ICP-MS. […] Most likely, organic cation transporters (OCT) may facilitate the uptake of oxaliplatin [47] at short time exposure and then, after saturation, the passive diffusion of the most lipophilic compounds becomes prominent.
A Varian 820-MS ICP mass spectrometer (Varian Italia, Cernusco sul Naviglio (MI), Italy) was used to perform the inductively coupled plasma mass spectrometry (ICP-MS) analyses for the determination of the platinum cellular uptake in LoVo colon cancer cells. Cells were seeded in 60 mm tissue culture dishes at a density of 500,000 cells/dish and incubated at 37 °C in a humidified atmosphere with 5% CO2. […] The platinum content was determined by ICP-MS.

TSPO = target: T1, TSPO (Rattus norvegicus, UniProt P16257); experiment: TSPO receptor binding assay, displacement of [3H]-PK 11195
T1 construct: Membranes from C6 rat glioma cells were prepared as described by Piccinonna et al; endogenous in cells; host or cells: C6 rat glioma cell membranes
T1 sequence (P16257 whole entry): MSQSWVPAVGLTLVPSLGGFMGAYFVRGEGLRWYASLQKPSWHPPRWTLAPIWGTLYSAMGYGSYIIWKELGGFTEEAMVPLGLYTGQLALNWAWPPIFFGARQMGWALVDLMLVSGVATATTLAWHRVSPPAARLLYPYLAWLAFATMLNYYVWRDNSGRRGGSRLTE
Experimental: Membranes from C6 rat glioma cells were prepared as described by Piccinonna et al. with minor modifications. In brief, cells scraped in PBS and harvested, were then homogenized with a Brinkman Polytron (Kinematica AG, Münstertäler, Germany). After centrifugation at 37,000× g for 30 min at 4 °C the resulting pellet was resuspended in ice-cold 10 mM PBS and stored at −80 °C until use.

[2] = system: human MCF7 breast carcinoma; experiment: MTT cell proliferation assay, MCF7; type: cell-based; settings: MCF7, 72 h treatment; for IC50: MTT, read-out: IC50 (concentration inducing 50% cell survival inhibition)
Experimental: as §1, §2, §3

[3] = Stability in physiological-like solution by 1H-NMR and HPLC; type: physicochemical
Experimental: The stability of 3 was investigated by ^1H-NMR spectroscopy in DMSO-d6/D2O (5:95, v/v) at pH 7.4 (2 mM phosphate buffer) and 37 °C. […] After 8 h of incubation we observed a decrease in intensity of the peaks of 3 and the concomitant increase of a new set of peaks, marked with ● in Figure 8b (H5, 8.09 ppm; H7, 7.44 ppm; H16/20 7.35 ppm), that was assigned to compound 2 by comparison with a spectrum of the TSPO ligand recorded in similar conditions.
An HPLC analysis of the sample was performed after 108 h incubation at 37 °C. […] No reduction of the Pt(IV) complex occurred under the conditions used in this experiment.
The sample was incubated at 37 °C in the dark and ^1H-NMR spectra recorded at different time intervals.
The NMR solution was further analyzed by HPLC analysis. Stationary phase: Waters Symmetry RP-C18 column, 5 μm, 4.6 × 250 mm, 100 Å. Mobile phase: phase A = water and phase B = Acetonitrile; isocratic elution 5% phase B for 5 min, linear gradient from 5% to 50% phase B in 10 min, isocratic elution 50% phase B for 7 min, linear gradient from 50% to 5% phase B in 2 min, isocratic elution 5% phase B for 6 min. Flow rate = 0.7 mL·min^−1. UV-visible detector set at 220 nm.

[4] = after 4 h treatment at IC50 concentration
[5] = after 24 h treatment at IC50 concentration
[6] = Homo sapiens, 100 µM (maximum concentration tested)

SMILES	IC50 [1] [nM]	IC50 (human U87 glioblastoma) [nM]	Perturbation of cell cycle progression (LoVo cells)	Uptake by LoVo Cells (ppb of Pt) (LoVo colon cancer cells; [4])	Uptake by LoVo Cells (ppb of Pt) (LoVo colon cancer cells; [5])	viability at 100 µM [1, 6] [%]	IC50 (human U87 glioblastoma; Homo sapiens) [nM]	IC50 (TSPO) [nM]	viability at 100 µM [2, 6] [%]	IC50 ([1]; listed as cis,trans,cis-[Pt(ethanedioato)Cl{2-(2-(4-(6,8-dichloro-3-(2-(dipropylamino)-2-o))))) [nM]	Induction of apoptosis (LoVo cells; 24 h treatment)	Half-life of the complex (hydrolysis of ester bond) ([3]; DMSO-d6/D2O (5:95, v/v), pH 7.4 (2 mM phosphate buffer), 37 °C, 52 μM, from NMR)	Time after which signals disappeared completely ([3]; DMSO-d6/D2O (5:95, v/v), pH 7.4 (2 mM phosphate buffer), 37 °C, 1H-NMR) [h]	Degradation behaviour in physiological-like conditions ([3]; pH 7.4, 37 °C, HPLC after 108 h incubation)	IC50 (TSPO; displacement of [3H]-PK 11195 (0.7 nM), Table 2: rat cerebral cortex, method: C6 rat glioma cell membranes, 90 min, 25 °C, read-out: IC50 TSPO) [nM]	IC50 [2] [nM]
O=C1[O][Pt-2]2([NH2+]C3CCCC[C@H]3[NH2+]2)[O]C1=O (stereo in doubt) [Oxaliplatin, trans-1R,2R-diaminocyclohexane(oxalato)platinum(II)]	460 ± 10	3100 ± 200	delayed the S-phase and started to accumulate cells in G2/M-phase and G0/G1 phase	0.24 ± 0.04 ppb of Pt	0.38 ± 0.01 ppb of Pt											
CCCN(CCC)C(=O)Cc1c(-c2ccc(OCC(=O)O)cc2)nc2c(Cl)cc(Cl)cn12 [compound 2, 2-(4-(6,8-dichloro-3-(2-(dipropylamino)-2-oxoethyl)imidazo[1,2-a]pyridin-2-yl)phenoxy)acetic acid]			induced a sub-G0/G1 cell population			65	70200 ± 300	2.12 ± 0.1	53							
CCCN(CCC)C(=O)Cc1c(-c2ccc(OCC(=O)OCC[O][Pt]3([Cl])[O]C(=O)C(=O)[O]3)cc2)nc2c(Cl)cc(Cl)cn12.N[C@@H]1CCCC[C@H]1N [compound 3, cis,trans,cis-[Pt(ethanedioato)Cl{2-(2-(4-(6,8-dichloro-3-(2-(dipropylamino)-2-oxoethyl)imidazo[1,2-a]pyridin-2-yl)phenoxy)acetate)-ethanolato}(1R,2R-DACH)]]	2300 ± 100	16100 ± 300	no notable changes compared to oxaliplatin	0.33 ± 0.02 ppb of Pt	0.77 ± 0.02 ppb of Pt					2310	did not induce apoptosis	approximately 24 h	108	slow hydrolysis of the ester bond	18.6 ± 0.84	14100 ± 100
O=C1[O][Pt]2([Cl])([O]CCO)([NH]C3CCCCC3[NH]2)[O]C1=O (mixture of isomers) [compound 1, Cis,trans,cis-[Pt(ethanedioato)Cl(2-hydroxyethanolato)(1R,2R-DACH)]]	2500 ± 500	9100 ± 400	no notable changes compared to oxaliplatin	0.18 ± 0.01 ppb of Pt	0.59 ± 0.03 ppb of Pt											8200 ± 400
